Measured values reported in ChEMBL document CHEMBL5257125, “Discovery of pyrido[4,3-d]pyrimidinone derivatives as novel Wee1 inhibitors” (Bioorg Med Chem, 2023).

What was measured:
[1] = biological target: Wee1-like protein kinase (Homo sapiens, UniProt P30291); experiment: Inhibition of recombinant human Wee1 (214 to end residues) incubated for 1 hr in presence of tracer 178 by fluorescence based assay
[2] = system: T47D; experiment: Antiproliferative activity against human T47D cells incubated for 72 hrs by Celltiter-glo assay; assay type: functional, cell-based
[3] = system: MV4-11; experiment: Antiproliferative activity against human MV4-11 cells incubated for 72 hrs by Celltiter-glo assay; assay type: functional, cell-based; conditions: MV4-11, 72 h
[4] = Metabolic stability in mouse liver microsomes assessed as parent compound remaining preincubated with NADPH for 5 mins followed by compound addition and measured upto 90 mins by LC-MS/MS analysis; assay type: ADME, Microsome; conditions: read-out: Stability

Chain of Wee1-like protein kinase (P30291 whole entry): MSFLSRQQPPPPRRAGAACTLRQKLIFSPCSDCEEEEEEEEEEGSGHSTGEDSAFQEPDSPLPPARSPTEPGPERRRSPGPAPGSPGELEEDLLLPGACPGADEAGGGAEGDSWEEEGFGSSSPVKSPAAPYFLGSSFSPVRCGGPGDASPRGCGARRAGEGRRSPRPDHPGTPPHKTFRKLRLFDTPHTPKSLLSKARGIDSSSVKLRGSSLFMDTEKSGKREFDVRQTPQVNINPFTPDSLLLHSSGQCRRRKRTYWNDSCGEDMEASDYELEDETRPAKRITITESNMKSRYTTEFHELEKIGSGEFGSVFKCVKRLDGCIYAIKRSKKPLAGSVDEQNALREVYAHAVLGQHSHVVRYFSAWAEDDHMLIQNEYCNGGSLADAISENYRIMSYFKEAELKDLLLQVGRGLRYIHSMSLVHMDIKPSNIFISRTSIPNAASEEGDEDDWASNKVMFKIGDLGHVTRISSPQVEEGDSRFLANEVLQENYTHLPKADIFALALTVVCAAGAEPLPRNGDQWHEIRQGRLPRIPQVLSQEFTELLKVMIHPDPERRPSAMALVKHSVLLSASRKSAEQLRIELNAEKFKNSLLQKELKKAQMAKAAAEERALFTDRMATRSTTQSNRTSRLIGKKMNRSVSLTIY

| IC50 [1] [nM] | IC50 [2] [nM] | IC50 [3] [nM] | remaining at 1.5 h [4] [%] | SMILES |
| --- | --- | --- | --- | --- |
| 38 |  |  |  | CC(C)N1CCN(c2ccc(Nc3cc4ncn(-c5c(Cl)cccc5Cl)c(=O)c4cn3)cc2)CC1 |
| 294 |  |  |  | CC(=O)N1CCN(c2ccc(Nc3cc4ncn(-c5c(Cl)cccc5Cl)c(=O)c4cn3)cc2)CC1 |
| 515 |  |  |  | O=c1c2cnc(Nc3ccc(N4CCC(CO)CC4)cc3)cc2ncn1-c1c(Cl)cccc1Cl |
| 268 |  |  |  | CN1CCN(c2ccc(Nc3cc4ncn(-c5c(F)cccc5Cl)c(=O)c4cn3)cc2)CC1 |
| 85 |  |  |  | CCN1CCN(c2ccc(Nc3cc4ncn(-c5c(Cl)cccc5Cl)c(=O)c4cn3)cc2)CC1 |
| 48 | 4230 | 863 | > 50 | O=c1c2cnc(Nc3ccc(N4CCNCC4)cc3)cc2ncn1-c1c(Cl)cccc1Cl |
| 97 |  |  |  | O=c1c2cnc(Nc3ccc(N4CCN(C5CC5)CC4)cc3)cc2ncn1-c1c(Cl)cccc1Cl |
| 78 |  |  |  | Cc1cccc(Cl)c1-n1cnc2cc(Nc3ccc(N4CCN(C)CC4)cc3)ncc2c1=O |
| 96 |  |  |  | O=c1c2cnc(Nc3ccc(N4CCC(O)CC4)cc3)cc2ncn1-c1c(Cl)cccc1Cl |

More lines, now with the values behind:

| SMILES | IC50 [1] [nM] | IC50 [2] [nM] | IC50 [3] [nM] | remaining at 1.5 h [4] [%] |
| --- | --- | --- | --- | --- |
| CN1CCC(Oc2ccc(Nc3cc4ncn(-c5c(Cl)cccc5Cl)c(=O)c4cn3)cc2)CC1 | 93 |  |  |  |
| O=c1c2cnc(Nc3ccc(NC4CCNCC4)cc3)cc2ncn1-c1c(Cl)cccc1Cl | 77 | > 20000 | 2470 |  |
| CN(C)CCCN(C)c1ccc(Nc2cc3ncn(-c4c(Cl)cccc4Cl)c(=O)c3cn2)cc1 | 142 |  |  |  |
| N[C@H]1CCN(c2ccc(Nc3cc4ncn(-c5c(Cl)cccc5Cl)c(=O)c4cn3)cc2)C1 | 40 | 5030 | 1010 |  |
| N[C@@H]1CCCN(c2ccc(Nc3cc4ncn(-c5c(Cl)cccc5Cl)c(=O)c4cn3)cc2)C1 | 36 |  |  |  |
| C=CCn1c(=O)c2cnc(Nc3ccc(N4CCN(C)CC4)cc3)nc2n1-c1cccc(C(C)(C)O)n1 [ADAVOSERTIB] |  | 12800 | 95 |  |
| CN1CCN(c2ccc(Nc3cc4ncn(-c5ccccc5F)c(=O)c4cn3)cc2)CC1 | 1480 |  |  |  |
| CN(C)C1CCN(c2ccc(Nc3cc4ncn(-c5c(Cl)cccc5Cl)c(=O)c4cn3)cc2)CC1 | 73 |  |  |  |
| CN1CCN(c2ccc(Nc3cc4ncn(-c5c(Cl)cccc5Cl)c(=O)c4cn3)nc2)CC1 | 18 | 6390 | 1070 |  |
| C[C@@H]1CN(c2ccc(Nc3cc4ncn(-c5c(Cl)cccc5Cl)c(=O)c4cn3)cc2C(F)(F)F)C[C@H](C)N1 | 192 |  |  |  |
| C[C@@H]1CN(c2ccc(Nc3cc4ncn(-c5c(Cl)cccc5Cl)c(=O)c4cn3)nc2)C[C@H](C)N1 | 23 | 2670 | 1160 |  |
